Measured values taken from US20080031982A1 (Metaproteomics, LLC, priority 2006, published 2008).

Assays:
Test in all cases: KinaseProfiler Assay
p70S6K = p70S6K (Homo sapiens, UniProt P23443)
AMPK = test system: AMPK
CDK5/p25 = CDK5/p25 (Homo sapiens, UniProt Q00535)
EphA8 = target: T1, EphA8 (Homo sapiens, UniProt P29322)
T1 sequence (P29322 28-1005): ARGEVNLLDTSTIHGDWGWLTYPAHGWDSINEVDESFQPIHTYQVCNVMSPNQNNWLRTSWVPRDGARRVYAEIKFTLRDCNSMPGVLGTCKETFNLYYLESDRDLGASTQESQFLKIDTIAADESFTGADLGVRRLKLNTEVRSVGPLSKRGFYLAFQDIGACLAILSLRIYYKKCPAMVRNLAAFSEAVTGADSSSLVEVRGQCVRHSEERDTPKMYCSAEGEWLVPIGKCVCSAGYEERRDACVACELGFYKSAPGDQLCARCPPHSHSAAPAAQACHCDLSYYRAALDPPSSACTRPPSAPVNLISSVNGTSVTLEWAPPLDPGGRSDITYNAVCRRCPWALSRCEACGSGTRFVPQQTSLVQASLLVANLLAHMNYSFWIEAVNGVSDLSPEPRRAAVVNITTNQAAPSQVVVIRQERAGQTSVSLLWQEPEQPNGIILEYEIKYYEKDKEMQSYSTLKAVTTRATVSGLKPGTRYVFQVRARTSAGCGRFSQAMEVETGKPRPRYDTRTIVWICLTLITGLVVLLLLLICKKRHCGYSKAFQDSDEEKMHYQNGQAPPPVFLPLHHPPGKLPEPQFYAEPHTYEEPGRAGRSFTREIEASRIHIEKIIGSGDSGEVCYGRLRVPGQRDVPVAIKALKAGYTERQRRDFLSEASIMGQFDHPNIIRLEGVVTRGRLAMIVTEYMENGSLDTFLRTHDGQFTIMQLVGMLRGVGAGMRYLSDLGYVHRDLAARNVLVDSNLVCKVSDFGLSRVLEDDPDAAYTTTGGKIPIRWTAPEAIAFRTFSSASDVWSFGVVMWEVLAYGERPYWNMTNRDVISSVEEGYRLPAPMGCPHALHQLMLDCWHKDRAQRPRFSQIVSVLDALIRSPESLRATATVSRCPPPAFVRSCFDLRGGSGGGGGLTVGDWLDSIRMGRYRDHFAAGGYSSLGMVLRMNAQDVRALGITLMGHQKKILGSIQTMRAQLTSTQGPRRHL

PKBα = PKBα (Homo sapiens, UniProt P31749)
cSRC = cSRC (Homo sapiens, UniProt P12931)
MSK2 = MSK2 (Homo sapiens, UniProt O75676)
PKBβ = PKBβ (Homo sapiens, UniProt P31751)
Lyn = test system: Lyn
Fyn = Fyn (Homo sapiens, UniProt P06241)
PKCα = PKCα (Homo sapiens, UniProt P17252)
MAPK1 = MAPK1 (Homo sapiens, UniProt P27361)
CDK9/cyclin T1 = CDK9/cyclin T1 (Homo sapiens, UniProt P50750)
CDK9/cyclin T1, sequence (P50750 whole entry): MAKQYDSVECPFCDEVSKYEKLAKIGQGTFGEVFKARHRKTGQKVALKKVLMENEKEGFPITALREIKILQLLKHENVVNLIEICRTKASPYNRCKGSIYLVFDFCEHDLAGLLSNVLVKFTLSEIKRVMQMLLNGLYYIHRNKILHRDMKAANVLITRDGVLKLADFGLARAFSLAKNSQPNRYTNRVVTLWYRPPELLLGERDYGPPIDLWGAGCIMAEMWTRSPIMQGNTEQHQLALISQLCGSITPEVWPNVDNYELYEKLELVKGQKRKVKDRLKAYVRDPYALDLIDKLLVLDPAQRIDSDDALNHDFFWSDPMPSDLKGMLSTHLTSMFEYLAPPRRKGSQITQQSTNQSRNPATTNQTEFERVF
CDK9/cyclin T1, sequence (O60563 whole entry partner): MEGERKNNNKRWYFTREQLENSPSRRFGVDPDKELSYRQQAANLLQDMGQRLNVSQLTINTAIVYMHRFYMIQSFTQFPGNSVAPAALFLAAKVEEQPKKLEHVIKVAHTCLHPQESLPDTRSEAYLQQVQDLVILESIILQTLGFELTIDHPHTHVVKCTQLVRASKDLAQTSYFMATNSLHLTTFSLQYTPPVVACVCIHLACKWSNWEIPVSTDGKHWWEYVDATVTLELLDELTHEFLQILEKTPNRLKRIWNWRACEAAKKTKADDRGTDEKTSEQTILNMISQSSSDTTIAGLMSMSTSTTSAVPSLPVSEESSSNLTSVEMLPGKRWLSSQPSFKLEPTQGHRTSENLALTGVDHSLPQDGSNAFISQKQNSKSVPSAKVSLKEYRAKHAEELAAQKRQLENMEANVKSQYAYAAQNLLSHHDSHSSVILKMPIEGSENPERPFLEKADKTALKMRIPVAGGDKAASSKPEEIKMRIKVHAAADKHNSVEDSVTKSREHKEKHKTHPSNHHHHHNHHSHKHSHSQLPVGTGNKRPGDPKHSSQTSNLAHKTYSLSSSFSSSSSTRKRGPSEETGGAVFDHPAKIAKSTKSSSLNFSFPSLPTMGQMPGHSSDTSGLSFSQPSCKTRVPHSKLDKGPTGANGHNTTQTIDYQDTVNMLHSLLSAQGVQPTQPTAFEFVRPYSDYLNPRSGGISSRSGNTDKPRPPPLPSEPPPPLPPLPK

PKBβ, sequence (P31751 whole entry): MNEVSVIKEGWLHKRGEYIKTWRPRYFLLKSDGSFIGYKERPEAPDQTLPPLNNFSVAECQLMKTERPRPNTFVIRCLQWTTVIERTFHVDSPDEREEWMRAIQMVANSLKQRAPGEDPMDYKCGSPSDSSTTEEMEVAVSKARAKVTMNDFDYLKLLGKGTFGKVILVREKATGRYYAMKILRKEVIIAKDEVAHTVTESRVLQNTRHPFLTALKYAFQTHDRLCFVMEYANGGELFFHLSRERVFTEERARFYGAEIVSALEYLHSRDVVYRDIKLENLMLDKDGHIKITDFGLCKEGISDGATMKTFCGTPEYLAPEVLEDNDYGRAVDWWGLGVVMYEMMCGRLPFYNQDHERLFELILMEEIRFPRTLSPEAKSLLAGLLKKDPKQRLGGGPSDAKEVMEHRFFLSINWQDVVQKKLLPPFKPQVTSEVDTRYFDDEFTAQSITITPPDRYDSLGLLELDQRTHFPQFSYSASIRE
Fyn, sequence (P06241 whole entry): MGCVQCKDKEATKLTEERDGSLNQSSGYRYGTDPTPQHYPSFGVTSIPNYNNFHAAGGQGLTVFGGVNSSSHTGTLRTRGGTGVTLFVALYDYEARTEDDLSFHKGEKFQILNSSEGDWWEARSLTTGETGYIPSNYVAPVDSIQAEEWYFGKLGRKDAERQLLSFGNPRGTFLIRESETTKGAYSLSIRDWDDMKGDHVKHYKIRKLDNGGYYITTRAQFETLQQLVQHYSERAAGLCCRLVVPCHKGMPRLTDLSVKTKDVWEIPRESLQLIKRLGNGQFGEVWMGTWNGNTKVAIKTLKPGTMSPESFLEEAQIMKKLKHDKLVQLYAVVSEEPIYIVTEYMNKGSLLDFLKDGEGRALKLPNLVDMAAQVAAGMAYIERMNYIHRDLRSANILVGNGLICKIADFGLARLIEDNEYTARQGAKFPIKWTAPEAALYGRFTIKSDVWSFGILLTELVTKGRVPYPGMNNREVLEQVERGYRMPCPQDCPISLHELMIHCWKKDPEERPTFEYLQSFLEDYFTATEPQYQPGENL
MSK2, sequence (O75676 whole entry): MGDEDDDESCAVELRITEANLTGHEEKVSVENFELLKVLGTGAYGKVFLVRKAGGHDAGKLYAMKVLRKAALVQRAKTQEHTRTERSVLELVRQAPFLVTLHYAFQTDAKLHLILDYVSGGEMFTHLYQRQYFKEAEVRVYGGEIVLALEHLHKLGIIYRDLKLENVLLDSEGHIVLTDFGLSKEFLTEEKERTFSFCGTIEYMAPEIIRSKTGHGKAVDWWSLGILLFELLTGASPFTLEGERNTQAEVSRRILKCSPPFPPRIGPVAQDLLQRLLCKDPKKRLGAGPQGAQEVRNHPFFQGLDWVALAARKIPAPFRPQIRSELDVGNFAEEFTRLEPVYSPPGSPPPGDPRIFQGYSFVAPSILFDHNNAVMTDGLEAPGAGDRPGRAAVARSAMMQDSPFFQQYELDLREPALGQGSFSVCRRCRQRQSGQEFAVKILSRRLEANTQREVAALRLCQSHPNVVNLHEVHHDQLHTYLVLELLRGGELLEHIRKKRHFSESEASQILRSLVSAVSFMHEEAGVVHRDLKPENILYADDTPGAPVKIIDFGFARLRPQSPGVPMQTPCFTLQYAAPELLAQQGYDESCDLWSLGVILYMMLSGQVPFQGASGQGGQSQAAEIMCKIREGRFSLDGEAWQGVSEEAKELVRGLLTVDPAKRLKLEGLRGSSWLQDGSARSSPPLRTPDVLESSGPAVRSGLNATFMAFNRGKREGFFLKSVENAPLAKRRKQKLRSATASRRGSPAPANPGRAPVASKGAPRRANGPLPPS
cSRC, sequence (P12931 whole entry): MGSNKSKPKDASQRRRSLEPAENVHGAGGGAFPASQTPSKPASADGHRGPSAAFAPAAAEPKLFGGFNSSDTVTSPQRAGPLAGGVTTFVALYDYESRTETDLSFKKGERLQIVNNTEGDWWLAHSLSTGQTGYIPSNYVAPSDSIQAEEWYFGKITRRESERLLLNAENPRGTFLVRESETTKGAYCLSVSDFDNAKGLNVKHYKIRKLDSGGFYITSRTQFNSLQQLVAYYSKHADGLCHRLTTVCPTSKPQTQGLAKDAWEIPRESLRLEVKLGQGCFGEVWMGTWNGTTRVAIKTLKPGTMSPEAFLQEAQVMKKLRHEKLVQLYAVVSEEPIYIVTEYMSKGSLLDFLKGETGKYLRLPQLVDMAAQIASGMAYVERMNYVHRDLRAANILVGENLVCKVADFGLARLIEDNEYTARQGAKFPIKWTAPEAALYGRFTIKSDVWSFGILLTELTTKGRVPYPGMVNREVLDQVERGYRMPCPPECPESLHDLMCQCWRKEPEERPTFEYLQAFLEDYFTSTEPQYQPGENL
PKBα, sequence (P31749 whole entry): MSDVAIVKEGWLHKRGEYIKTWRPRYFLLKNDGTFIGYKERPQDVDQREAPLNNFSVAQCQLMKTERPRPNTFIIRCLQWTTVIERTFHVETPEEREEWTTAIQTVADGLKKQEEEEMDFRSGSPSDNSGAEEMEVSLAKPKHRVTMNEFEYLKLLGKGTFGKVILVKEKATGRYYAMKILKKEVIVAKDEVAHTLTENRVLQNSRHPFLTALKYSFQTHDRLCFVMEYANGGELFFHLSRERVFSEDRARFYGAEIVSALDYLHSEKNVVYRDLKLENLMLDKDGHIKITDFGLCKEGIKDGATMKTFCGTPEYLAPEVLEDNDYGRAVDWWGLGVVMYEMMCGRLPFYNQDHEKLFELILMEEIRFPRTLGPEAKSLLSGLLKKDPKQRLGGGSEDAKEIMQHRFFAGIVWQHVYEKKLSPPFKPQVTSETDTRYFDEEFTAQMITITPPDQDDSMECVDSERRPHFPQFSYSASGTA
MAPK1, sequence (P27361 whole entry): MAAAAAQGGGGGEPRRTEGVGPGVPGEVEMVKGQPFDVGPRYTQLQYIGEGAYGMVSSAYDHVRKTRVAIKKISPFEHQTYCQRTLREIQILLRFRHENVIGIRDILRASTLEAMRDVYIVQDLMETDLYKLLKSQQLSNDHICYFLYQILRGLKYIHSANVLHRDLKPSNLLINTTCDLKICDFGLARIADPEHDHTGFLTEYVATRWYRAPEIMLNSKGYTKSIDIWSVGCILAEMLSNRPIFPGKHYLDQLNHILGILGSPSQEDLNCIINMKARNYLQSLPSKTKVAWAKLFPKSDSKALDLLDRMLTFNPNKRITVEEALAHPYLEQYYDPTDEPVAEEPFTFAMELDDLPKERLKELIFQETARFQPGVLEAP

COc1cc(O)c(CC=C(C)C)c(O)c1C(=O)/C=C/c1ccc(O)cc1 [Xanthohumol, xanthohumol]
Kinase activity, % of Control (p70S6K; 1 ug/ml): 94 % of Control | Kinase activity, % of Control (p70S6K; 5 ug/ml): 48 % of Control | Kinase activity, % of Control (p70S6K; 25 ug/ml): 19 % of Control | Kinase activity, % of Control (p70S6K; 50 ug/ml): 7 % of Control | Kinase activity, % of Control (AMPK; 1 ug/ml): 122 % of Control | Kinase activity, % of Control (AMPK; 5 ug/ml): 113 % of Control | Kinase activity, % of Control (AMPK; 25 ug/ml): 90 % of Control | Kinase activity, % of Control (AMPK; 50 ug/ml): 81 % of Control | Kinase activity, % of Control (CDK5/p25; 25 ug/ml): 24 % of Control | Kinase activity, % of Control (CDK5/p25; 50 ug/ml): 87 % of Control | Kinase activity, % of Control (EphA8; 1 ug/ml): 103 % of Control | Kinase activity, % of Control (EphA8; 5 ug/ml): 92 % of Control | Kinase activity, % of Control (EphA8; 25 ug/ml): 29 % of Control | Kinase activity, % of Control (EphA8; 50 ug/ml): 19 % of Control | Kinase activity, % of Control (PKBα; 1 ug/ml): 102 % of Control | Kinase activity, % of Control (PKBα; 25 ug/ml): 18 % of Control | Kinase activity, % of Control (PKBα; 50 ug/ml): 5 % of Control | Kinase activity, % of Control (cSRC; 1 ug/ml): 92 % of Control | Kinase activity, % of Control (cSRC; 5 ug/ml): 50 % of Control | Kinase activity, % of Control (cSRC; 25 ug/ml): 27 % of Control | Kinase activity, % of Control (cSRC; 50 ug/ml): 21 % of Control | Kinase activity, % of Control (MSK2; 1 ug/ml): 126 % of Control | Kinase activity, % of Control (MSK2; 5 ug/ml): 61 % of Control | Kinase activity, % of Control (MSK2; 25 ug/ml): 8 % of Control | Kinase activity, % of Control (MSK2; 50 ug/ml): 19 % of Control | Kinase activity, % of Control (PKBβ; 1 ug/ml): 146 % of Control | Kinase activity, % of Control (PKBβ; 5 ug/ml): 102 % of Control | Kinase activity, % of Control (PKBβ; 25 ug/ml): 1 % of Control | Kinase activity, % of Control (PKBβ; 50 ug/ml): 8 % of Control | Kinase activity, % of Control (Lyn; 1 ug/ml): 97 % of Control | Kinase activity, % of Control (Lyn; 5 ug/ml): 40 % of Control | Kinase activity, % of Control (Lyn; 25 ug/ml): 4 % of Control | Kinase activity, % of Control (Lyn; 50 ug/ml): 2 % of Control | Kinase activity, % of Control (Fyn; 1 ug/ml): 104 % of Control | Kinase activity, % of Control (Fyn; 5 ug/ml): 66 % of Control | Kinase activity, % of Control (Fyn; 25 ug/ml): 42 % of Control | Kinase activity, % of Control (Fyn; 50 ug/ml): 18 % of Control | Kinase activity, % of Control (PKCα; 1 ug/ml): 100 % of Control | Kinase activity, % of Control (PKCα; 5 ug/ml): 100 % of Control | Kinase activity, % of Control (PKCα; 50 ug/ml): 83 % of Control | Kinase activity, % of Control (MAPK1; 5 ug/ml): 64 % of Control | Kinase activity, % of Control (MAPK1; 25 ug/ml): 19 % of Control | Kinase activity, % of Control (MAPK1; 50 ug/ml): 17 % of Control | Kinase activity, % of Control (CDK9/cyclin T1; 1 ug/ml): 110 % of Control | Kinase activity, % of Control (CDK9/cyclin T1; 5 ug/ml): 107 % of Control | Kinase activity, % of Control (CDK9/cyclin T1; 25 ug/ml): 45 % of Control | Kinase activity, % of Control (CDK9/cyclin T1; 50 ug/ml): 31 % of Control
